Data set [1] can be described thus: Plasma stability assay, mouse plasma. Conditions: mouse plasma, 37°C, 24 h.
The nature of data set [2]: Plasma stability assay, human plasma. Conditions: 37°C.
Data set [3] in a line: Biodistribution study (SPECT/CT) in SK-RC-52 tumor-bearing mice with or without gelofusine. It is filed as in vivo, NMRI nude mice. The following applies: female, NMRI nude, mouse, in vivo, iv, total radioactivity, peak tumor uptake, typical (conclusion). How it is done: The effect on tumor uptake of prior injection of gelofusine for kidney protection was investigated in mice bearing the SK-RC-52 tumor. Biodistribution was evaluated using in vivo SPECT/CT imaging. Prior to the in vivo study the compounds (ligands) were initially radiolabeled with In-111 and the stability of radiolabeled compounds was evaluated in buffer at three different timepoints.
The study was performed in female NMRI nude mice (approximately 6 weeks of age) from Janvier Labs, France, housed up to 5 mice per cage.
The column was washed with 2 mL water, and then the final product was eluted from the column in EtOH solution (50%) • The sample was formulated in PBS to the final concentration of 150 MBq/mL and 5 nmol/mL.
SK-RC-52 cells were cultured in RPMI 1640 with GlutaMax-I (Thermo Fisher Scientific #61870044) supplemented with 10% fetal bovine serum+1% penicillin/streptomycin, harvested, washed twice in RPMI 1640 and resuspended at 2×10^7 cells/mL in RPMI 1640. HT-29 cells were cultured in McCoy's 5a Medium Modified (Sigma #M9309). For inoculation of HT-29 cells, cells were harvested, washed twice in PBS and resuspended at 5×10^7 cells/mL in PBS. Cells were kept on ice until inoculation.
Animals were anaesthetized (isoflurane, 2-4% in ambient air supplemented with 100% 02) prior to tumor inoculation. The tumor cells (100 μL suspension of either SK-RC-52 cells (2×10^6 cells/animal) or HT-29 cells (5×10^6 cells/animal)) were subcutaneously inoculated in the right flank using a 1-mL syringe equipped with a 27 G needle. Tumor growth and animal weight were measured twice per week. Tumor size was measured by caliper and the volume was estimated using the following formula: 0.52×(length×width^2). When tumor sizes reached 150-250 mm^3, animals were randomized into groups (n=3) of similar average tumor volume and body weight.
Animals were injected intravenously with In-111-labeled compounds (single bolus, 22.3-31.2 MBq, ˜1 nmol ligand, injection volume: 100 μL) in the lateral tail vein using a 29 G syringe.
CT was performed with helical scan, 300 ms exposure, reconstruction resolution of 250 μm. SPECT was performed with multi-pinhole scan and a 30 s frame time. For the quantification of the radioactivity uptake, regions of interests (ROIs) were drawn over the tumor, kidney, liver, and heart (estimate of blood) identified on the images. Uptake was expressed as percent of injected dose per gram tissue (% ID/g).

A further data set addresses T1, mouse CAIX (Mus musculus, UniProt Q8VHB5).
T1 construct: host or cells: CHO-VGT / CHO cells
The experiment in a line: Radioligand saturation binding on CHO-msCAIX. The following applies: CHO-msCAIX, single experiment. How it is done:
(§1) After attainment of equilibrium, the cells were harvested, and the bound fraction of the compounds was measured. The resulting saturation binding data were analyzed using Graph Pad Prism 8.3.
(§2) CHO cells transfected with human, dog, and mouse CAIX (CHO-huCA9 T04J-1/20 K1, CHO-dogCA9 T05J-9/20 K4, CHO-murCA9 T05J-3/20 K4) were obtained from InSCREENex (Germany).
(§3) A molar excess of 3BP-3565 was used as a blocking peptide to assess non-specific binding in autoradiographic studies. 3BP-3565 binds with a similar affinity to CAIX and blocks binding sites of test compounds. For the blocking solution, a 10 mM stock solution of 3BP-3565 was prepared by dissolution in DMSO.
(§4) CHO cells were maintained in Ham's medium supplemented with 10% fetal bovine serum, 2 mM L-glutamine, 100 U/mL Penicillin and 0.1 mg/mL streptomycin under standard cell culture conditions. The cells were grown in uncoated cell culture flasks (150 cm^2, Biochrom) to subconfluence and then split 1:2-1:3. Approximately 24 hours before the assay, cells were detached by incubation with Accutase and carefully tapping the flasks. Detached cells were resuspended in medium and collected by centrifugation (300 g, 5 min, RT). Cell pellets were resuspended in cell culture medium and counted using a particle counter (CASY Model TT, Scharfe Systems, Germany). Cell concentrations were adjusted to 3×10^5 mL^−1, and 1.000 μL per well of the suspension were dispensed into poly-D-lysine-coated flat-clear-bottom 24 well plates.
(§5) Compound radiolabeling was performed as follows. […] Then, 25 mg/mL methionine in 1 M sodium acetate buffer pH 5 was added at a final concentration of 0.1 M sodium acetate. Subsequently, the mixture was heated to 80° C. for 25 min, followed by cooling for 5 minutes. Finally, 20 μL of 200 mg/mL ascorbic acid solution, 2.5 μL of 5 mg/mL DTPA and 2.5 μL of 5% TWEEN-20 per 100 μL reaction mixture were added, resulting in the concentrated study solution. For quality control, an aliquot of the labeling solution was diluted 1:40 with 0.1% TWEEN-20 in 0.1 M sodium acetate buffer pH 5. Five microliters of the diluted labeling solution were injected onto a Poroshell SB-C18 2.1×50 mm, 2.7 μm column. HPLC analysis was performed as follows: Gradient A: H2O, 0.1% TFA, Gradient B: Acetonitrile (MeCN), gradient from 5% B to 70% B within 15 min, flow rate of 0.5 mL/min; detector: NaI, DAD 215 nm. The peak eluting with the dead volume represents free radionuclide, the peak eluting with the ligand-specific retention time as determined with a non-labeled sample represents the radiolabeled compound.
The radioligand saturation binding on CHO-msCAIX was determined as follows. […] Their associated radioactivity was counted using a gamma counter and normalized to the measured protein concentration of each well. […]

The conditions of data set [4]: dog, in vivo.
The target in the next data set is human CAIX (Homo sapiens, UniProt Q16790). Briefly: Radioligand saturation binding and equilibration on CHO-huCAIX. Also on record: host or cells: CHO-VGT / CHO cells. How it is done:
as §1, §2, §3, §4, §5
The assessment of the time needed until attainment of equilibration on CHO-huCAIX and CHO-dgCAIX was performed as follows. The 10 mM 3BP-3565 stock solution was diluted with assay medium (Ham's medium without additives) to prepare an 8-μM blocking working solution. The radiolabeling mixtures were diluted with assay medium to prepare 160 nM radioligand working solutions. Subsequently, 1.6 and 3.2 nM radioligand dilutions were prepared by diluting the radioligand working solutions 1:100 and 1:50, respectively, with assay medium. Approximately 24 hours after re-seeding (3×10^5 mL^−1 cells per well), the medium was aspirated, and the cells were washed once with assay medium (700 μL). To determine total binding, 700 μL of binding medium and 100 μL of the radioligand dilutions were added to the wells in triplicates.
To determine non-specific binding, 600 μL of binding medium, 100 μL of the […] 3BP-3565 blocking solution and 100 μL of the radioligand dilutions were added to the wells in triplicates. The plates were incubated for 1 h, 3 h, 6 h, and 8 h at 37° C. under standard cell culture conditions (5% CO2). At the end of the incubation time, the plates were placed on ice while aspirating the radioligand solutions. Subsequently, the cells were washed with ice-cold PBS (0.5 mL, 1 mL, 1 mL). […]

A short description of data set [5]: In vivo efficacy, biodistribution and tolerability of 225Ac-DPI-4452 in HT-29 xenograft mouse model. Also on record: species or system NMRI nude mice. The following applies: female, NMRI nude, mouse, iv, total radioactivity, HT-29 model, 15 kBq, 4 hours after dosing.
In data set [6] the test system is HT-29 (CRC) human cancer cell line xenograft. The description is as above. More on the design: species or system NMRI nude mice. The following applies: HT-29 model.
A short description of data set [7]: In vivo efficacy, biodistribution and tolerability of 225Ac-DPI-4452 in SK-RC-52 xenograft mouse model. Also on record: species or system NMRI nude mice. Conditions: female, NMRI nude, mouse, iv, total radioactivity, SK-RC-52 model, 15 kBq, 4 hours after dosing.
Data set [8] relates to SK-RC-52 (ccRCC) human cancer cell line xenograft. Described as above. More on the design: species or system NMRI nude mice. The following applies: SK-RC-52 model.
Setting [9] is: colon, small intestine and stomach.
The mark [10] stands for this setting: kidney, read-out: kidney uptake.

Read-outs that look alike come from different tables or passages of the source.

T1 sequence (Q8VHB5 32-437): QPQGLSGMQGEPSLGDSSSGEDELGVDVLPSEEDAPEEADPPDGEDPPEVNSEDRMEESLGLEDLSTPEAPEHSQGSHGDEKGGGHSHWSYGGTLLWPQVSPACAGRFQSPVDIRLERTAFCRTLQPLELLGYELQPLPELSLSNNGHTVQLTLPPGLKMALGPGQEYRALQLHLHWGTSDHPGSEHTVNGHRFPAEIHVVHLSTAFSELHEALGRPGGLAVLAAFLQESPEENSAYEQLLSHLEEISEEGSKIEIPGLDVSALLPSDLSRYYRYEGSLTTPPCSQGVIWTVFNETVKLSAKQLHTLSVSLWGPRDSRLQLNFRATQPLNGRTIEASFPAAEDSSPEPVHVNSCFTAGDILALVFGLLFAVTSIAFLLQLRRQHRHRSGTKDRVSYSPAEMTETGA

Regarding `CC(C)C[C@@H]1NC(=O)[C@H](Cc2cccc(NC(=O)CCCS(N)(=O)=O)c2)NC(=O)[C@H](CC(=O)O)NC(=O)[C@H]2CCCN2C(=O)[C@H](CCC(=O)O)NC(=O)[C@@H](NC(=O)[C@H](CCC(N)=O)NC(=O)CN2CCN(C(=O)CN3CCN(CC(=O)O)CCN(CC(=O)O)CCN(CC(=O)O)CC3)CC2)CSCc2cccc(c2)CSC[C@@H](C(N)=O)NC(=O)[C@H](CO)NC(=O)[C@H](Cc2c[nH]c3ccccc23)NC(=O)[C@H]([C@@H](C)O)NC1=O` (natLu complex, metal not drawn) [3BP-4555], the “% intact compound remaining (incubation time)” value in data set [1] is greater than 95%. In addition, in data set [2], the “% intact compound remaining after 24 h incubation” value was greater than 95%.
For `CC(C)C[C@@H]1NC(=O)[C@H](Cc2ccc(NC(=O)CCS(N)(=O)=O)cc2)NC(=O)[C@H](CC(=O)O)NC(=O)[C@H]2CCCN2C(=O)[C@H](CCC(=O)O)NC(=O)[C@@H](NC(=O)[C@H](CCC(N)=O)NC(=O)CN2CCN(CC(=O)O)CCN(CC(=O)O)CCN(CC(=O)O)CC2)CSCc2cccc(c2)CSC[C@@H](C(N)=O)NC(=O)[C@H](CO)NC(=O)[C@H](Cc2c[nH]c3ccccc23)NC(=O)[C@H]([C@@H](C)O)NC1=O` [[^111In]In-DPI-4501, metal not drawn], the tissue uptake in data set [3] is 7 %ID/g. Further, the “Mean pKd ± SD” value on mouse CAIX is 7.9. Further, the Kd at mouse CAIX (read-out: pKd (converted)) is 12.6 nM; at human CAIX (CHO-huCAIX, first independent experiment, read-out: pKd (converted)), 0.158 nM; on human CAIX (CHO-huCAIX, read-out: Mean pKd ± SD (converted)), 0.251 nM; at human CAIX (CHO-huCAIX, second independent experiment, read-out: pKd (converted)), 0.398 nM; on human CAIX (human CAIX expressed in CHO cells, 8 h at 37°C, read-out: pKd (converted)), no more than 1 nM. Also, the half-life stood at 68.9 min in data set [4] and 5.88 min in [4] (iv). The compound further showed a koff at human CAIX (CHO-huCAIX) of 0.00012 s⁻¹.
Consider `CC(C)C[C@@H]1NC(=O)[C@H](Cc2cccc(NC(=O)CCCS(N)(=O)=O)c2)NC(=O)[C@H](CC(=O)O)NC(=O)[C@H]2CCCN2C(=O)[C@H](CCC(=O)O)NC(=O)[C@@H](NC(=O)[C@H](CCC(N)=O)NC(=O)CN2CCN(C(=O)CN3CCN(CC(=O)O)CCN(CC(=O)O)CCN(CC(=O)O)CC3)CC2)CSCc2cccc(c2)CSC[C@@H](C(N)=O)NC(=O)[C@H](CO)NC(=O)[C@H](Cc2c[nH]c3ccccc23)NC(=O)[C@H]([C@@H](C)O)NC1=O` [^225Ac-DPI-4452, metal not drawn], for which the tissue uptake at 4 h in data set [5] (HT-29 tumor, ex vivo gamma counter, read-out: tumor uptake) was 11.3 ± 1.3 %ID/g; in data set [5] (setting [9]), less than 1.1 %ID/g; in data set [5] (setting [10]) it was 7.9 ± 1.3 %ID/g; in data set [7] (SK-RC-52 tumor, ex vivo gamma counter, read-out: tumor uptake), 39.1 ± 1.6 %ID/g; in [7] (setting [9]) it was less than 1.1 %ID/g; in [7] (setting [10]) it was 4.9 ± 0.2 %ID/g. Further, the “creatinine values versus vehicle” value in [6] (135 kBq, day 14) is listed as “slightly elevated”; in [8] (135 kBq, day 14) it was “slightly elevated”. Besides, the tolerability of treatment entry is on record as “well tolerated” in data set [6] (single 15, 45 or 135 kBq i.v.) and “well tolerated” in data set [8] (single 15, 45 or 135 kBq i.v.).

Source of the values: patent US20250339569A1, “CARBONIC ANHYDRASE IX LIGANDS” (priority 2021, published 2025).
